From patent US9597347B2, “Compositions for treating obesity and insulin resistance disorders” (President and Fellows of Harvard College, priority 2003, dated 2017)

Columns and labels:
[1] = test system: DAF-16 mutant worms (mgDf47); experiment: Nile Red staining of fat accumulation in DAF-16 mutant worms (mgDf47); format: in vivo, C. elegans; details: defective in insulin-signaling
Protocol: Sir2.1, which is activated by resveratrol, acts via the transcription factor DAF-16 to prolong lifespan in […] (Tissenbaum and Guarente (2001) Nature 410:227).
C. elegans strains were maintained as described at 25° C., except when noted (Brenner (1974) Genetics 77:71). The wild type reference strain was N2 Bristol; the mutant strains were: sir-2.1(ok434), T01C8.1(ok524), and daf-16 (mgDf47). Daf-16 (mgDf47) was obtained from the Ruvkun laboratory, MGH; all other strains were obtained from the Caenorhabditis Genetics Center (from C. Elegans Gene Knockout Consortium).
Synchronized starved L1 worms were grown in the presence of Nile Red. Strains were grown on NGM plates at 25° C. for approximately 48 hours until the young adult stage was reached. 20-30 young adult worms were then washed 2× with M9 buffer and transferred to new NGM/Nile red experimental plates that contained either OP50 or HTT5 E. coli carrying the L4440 RNAi control vector. For experiments comparing the effect of nicotinamide and resveratrol on fat mobilization, OP50 plates were coated with vehicle alone or Nicotinamide (in PBS), or vehicle alone and Resveratrol (in Ethanol or DMSO).

[2] = test system: C. elegans worms; experiment: Nile Red fat staining in C. elegans fed RNAi bacteria; format: in vivo
Protocol: The role of Sir2.1 in fat metabolism was shown in C. elegans worms in which Sir2.1 was RNA inactivated. Young adult worms were grown to adulthood in the presence of bacteria that carry RNAi vector alone or vector encoding Sir2.1 RNAi (R11A8.4), as described below. These worms were grown in the presence or absence of resveratrol, and stained with Nile-Red as described below.
We have examined the C. elegans database and found two gene products that are highly related to mammalian AMPK, TOC1.8 and Par2.3; five genes encoding homologs of CPT-1 and one gene encoding a homolog of COT. C. elegans worms were incubated with bacteria carrying RNAi vector alone, or interfering RNA against TOC1.8 or F41E7.3, a C. elegans homologue of COT in the presence or absence of AICAR. Fat accumulation was visualized with Nile-Red, as described below. […] Thus, AICAR/AMPK signaling to fatty acid oxidation is conserved in worms and mammalian cells.
The effect of TOC1.8 and COT inactivation was then investigated in C. elegans incubated with resveratrol. C. elegans worms were incubated with bacteria carrying RNAi vector alone, or a vector encoding TOC1.8 or COT interfering RNA in the presence or absence of resveratrol. Fat accumulation was visualized with Nile-Red, as described below.
RNAi plates were seeded with HTT5 E. coli carrying either the L4440 RNAi vector control or the specific RNAi clones T01C8.1, AMPK; R11A8.4, sir-2.1; or F41E7.6 COT in the presence or absence of 100 μM resveratrol. Young adults were transferred to plates containing the appropriate vector, Nile Red stain and drug then maintained at 25° C. Nile Red staining was assessed 24 hours after resveratrol treatment by UV microscopy.
HT115 E. Coli carrying the RNAi vector, L4440, were used for maintenance feeding. Bacteria containing experimental RNAi clones were cultured in 10 ml Luria Broth media containing 50 μg/ml ampicillin for 18 hours. 350 μl of each culture was spotted to a 60 mm dish containing NGM agar, 6 mM IPTG and 25 μg/ml carbenicillin. After overnight incubation (at room temp), Nile Red was added on top of each dish to a final concentration of 0.05 μg/ml along with the experimental compounds indicated in the figure legends. Nile Red staining was assessed after 24 hrs by UV microscopy. For each batch of RNAi clones tested, L4440 (vector alone) was included. […] All phenotypes were confirmed by at least three additional rounds of testing.

[3] = test system: TNF-alpha treated adipocytes; experiment: Radioactive glucose uptake in TNF-alpha treated, insulin resistant adipocytes; format: cell-based; details: resveratrol 5 μM or 15 μM; roziglitazone 4 μM (positive control); with TNF-alpha
Protocol: Adipocytes were treated with TNF-alpha to induce insulin resistance as described in Kabayama et al., Glycobiology 15:21-29 (2005) and Wu et al., Mol. Cell 3:151-8 (1999).

[4] = test system: H4IIEC3 cells; experiment: Oxidation of 14C-palmitate in H4IIEC3 cells; format: cell-based; details: resveratrol 10 μM in 1% DMSO, AICAR 500 μM in H2O, metformin 1 mM in H2O; 4 hours; vehicle = 1
Protocol: Oxidation of 14C-palmitate to acid-soluble products (modified from H4IIEC3 cells [Witters, L. A. and B. E. Kemp, Insulin activation of acetyl-CoA carboxylase accompanied by inhibition of the 5′-AMP-activated protein kinase. J Biol Chem, 1992. 267(5): p. 2864-7] and HepG2 cells were maintained as described above. Cells (10^6 cells/T25) were seeded in a T25 flask one day prior to the experiment. On the day of the experiment cells were washed with assay buffer (114 mM NaCl, 4.7 mM KCL, 1.2 mM KH2PO4, 1.2 mM MgSO4, 11 mM glucose) before labeling with 14C-palmitate (0.4 μCi/ml) in presence of vehicle, or resveratrol (10 μM), or AICAR (500 μM) for 4 hours.
At the end of incubation, the cap of each T25 flask was replaced with a stopper and a 1′×1.5″ Whatman filter paper soaked with 250 μl 2N NaOH. Each flask was injected with 2 ml of 6N HCL, placed in a horizontal position for 10 minutes and left standing overnight. The next morning, 1 ml H2O and 61 μl NaOH were added to a glass scintillation vial and the filter papers from each T25 flask were transferred to their respective vial. 10 ml Aquasol was added to each vial and allowed to stand for 2 hours, after which the vials were vortexed to dissolve the […] and counted in the scintillation counter. The results were expressed as nmols/h/106 cells and shown as the fold effect. ^14CO2 production ranged from 0.3 to 1.8 nmols/h/106 cells. The experiment was repeated three times.

Which results are given for `Oc1ccc(/C=C/c2cc(O)cc(O)c2)cc1` [resveratrol, 3,5,4′-Trihydroxy-trans-stilbene]?
fat mobilization and fat accumulation [1]: stimulates fat mobilization and a decrease in fat accumulation; fat mobilization ([2]; RNA inactivation of DAF-16, or inactivation of DAF-16 by mutation): had no effect on resveratrol-stimulated fat mobilization; fat mobilization ([2]; RNA inactivation of TOC1.8 (AMPK homolog) or F41E7.3 (COT homolog)): blocks resveratrol-stimulated fat mobilization; reduction of fat content ([2]; RNAi vector alone, 100 μM resveratrol, Nile Red assessed after 24 hours): 75%; fat mobilization ([2]; Sir2.1 RNAi (R11A8.4)): did not show resveratrol induced fat mobilization; radioactive glucose uptake / insulin sensitivity [3]: partially rescued the TNF-alpha treated adipocytes restoring insulin sensitivity; 14C-CO2 production (Fold Effect) [4]: 2.3 Fold Effect
